Assay results reported in US6573076B1, “Gene, group of genes, and novel β-glucosidase” (Ajinomoto Co., Inc., priority 1997, dated 2003).
Like-named read-outs stand apart in the source and are kept apart here. Each block holds one molecule with its values, some of them ahead of it.

How the values were obtained:
β-glucosidase (G3ase) [1] = molecular target: T1, β-glucosidase (G3ase) (Komagataeibacter sucrofermentans, UniProt O24749); assay: Inhibition constants of G3ase inhibitors; assay type: biochemical, Acetobacter xylinum subsp. sucrofermentans BPR 2001
β-glucosidase (G3ase) [2] = molecular target: T1, β-glucosidase (G3ase); assay: Effect of metal ions and chemical agents on β-glucosidase (G3ase) activity; assay type: biochemical, Acetobacter xylinum subsp. sucrofermentans BPR 2001; conditions: for activity at 1000 µM: read-out: Relative activity (%)
Description: After reaction at 30° C. for 2 hr, a reaction solution (300 μl) of a glucose-measuring kit (Glucose CII test Wako: Wako Pure Chemical Industries, Ltd.) was added to the mixture, and reacted for 15 min at a room temperature, followed by the determination of an amount of glucose based on absorbance at 505 nm.

β-glucosidase (G3ase) [3] = molecular target: T1, β-glucosidase (G3ase); assay: Reactivity of G3ase with cellulosic substrates (glucose produced); assay type: biochemical, Acetobacter xylinum subsp. sucrofermentans BPR 2001
β-glucosidase (G3ase) [4] = molecular target: T1, β-glucosidase (G3ase); assay type: biochemical, Acetobacter xylinum subsp. sucrofermentans BPR 2001
[5] = substrate: OC[C@H]1O[C@@H](O[C@H]2[C@H](O)[C@@H](O)[C@H](O[C@H]3[C@H](O)[C@@H](O)[C@H](O[C@H]4[C@H](O)[C@@H](O)[C@H](O[C@H]5[C@H](O)[C@@H](O)[C@H](O[C@H]6[C@H](O)[C@@H](O)C(O)O[C@@H]6CO)O[C@@H]5CO)O[C@@H]4CO)O[C@@H]3CO)O[C@@H]2CO)[C@H](O)[C@@H](O)[C@@H]1O; assay: purified protein, by the assay type; conditions: other: substrate of G3ase
[6] = substrate: OC[C@H]1O[C@@H](O[C@H]2[C@H](O)[C@@H](O)[C@H](O[C@H]3[C@H](O)[C@@H](O)C(O)O[C@@H]3CO)O[C@@H]2CO)[C@H](O)[C@@H](O)[C@@H]1O; assay: purified protein, by the assay type; conditions: other: substrate of G3ase
[7] = substrate: OC[C@H]1O[C@@H](O[C@H]2[C@H](O)[C@@H](O)[C@H](O[C@H]3[C@H](O)[C@@H](O)[C@H](O[C@H]4[C@H](O)[C@@H](O)C(O)O[C@@H]4CO)O[C@@H]3CO)O[C@@H]2CO)[C@H](O)[C@@H](O)[C@@H]1O; assay: purified protein, by the assay type; conditions: other: substrate of G3ase
[8] = substrate: OC[C@H]1O[C@@H](O[C@H]2[C@H](O)[C@@H](O)[C@H](O[C@H]3[C@H](O)[C@@H](O)[C@H](O[C@H]4[C@H](O)[C@@H](O)[C@H](O[C@H]5[C@H](O)[C@@H](O)C(O)O[C@@H]5CO)O[C@@H]4CO)O[C@@H]3CO)O[C@@H]2CO)[C@H](O)[C@@H](O)[C@@H]1O; assay: purified protein, by the assay type; assay type: biochemical, Acetobacter xylinum subsp. sucrofermentans BPR 2001; conditions: other: substrate of G3ase
[9] = compound 1 mM, non-added sample = 100%
[10] = metal ions and chemical agents 1 mM

- Ki (β-glucosidase (G3ase) [1]): 700 µM
- Type of inhibition (β-glucosidase (G3ase) [1]): Competitive
- Type of inhibition (β-glucosidase (G3ase) [1]; listed as conduritol-β epoxide): competitively inhibited
Molecule: O[C@H]1[C@H](O)[C@@H](O)[C@@H]2O[C@@H]2[C@@H]1O (relative stereo) [Conduritol-βepoxide]

- Relative activity (%) (β-glucosidase (G3ase) [2]; [9]): 106%
Molecule: OCCS [2ME, 2-mercaptoethanol]
- Effect on β-glucosidase (G3ase) activity (in words) (β-glucosidase (G3ase) [2]; [10]): did not affect it adversely

Molecule: [Ca+2].[Cl-].[Cl-] [CaCl2]
- Relative activity (%) (β-glucosidase (G3ase) [2]; [9]): 100%

Molecule: O=S(=O)([O-])[O-].[Cu+2] [CuSO4]
- Relative activity (%) (β-glucosidase (G3ase) [2]; [9]): 115.7%

Molecule: O=C(O)CN(CCN(CC(=O)O)CC(=O)O)CC(=O)O [EDTA, ethylene diamine tetra acetate]
- Effect on β-glucosidase (G3ase) activity (in words) (β-glucosidase (G3ase) [2]): did not affect it adversely
- Relative activity (%) (β-glucosidase (G3ase) [2]): 100%

Molecule: O=S(=O)([O-])[O-].[Fe+2] [FeSO4]
- Relative activity (%) (β-glucosidase (G3ase) [2]; [9]): 91.6%

- percent ratio of produced glucose against total substrate added (β-glucosidase (G3ase) [3]; reaction time 2 hr): 13.1%
- percent ratio of produced glucose against total substrate added (β-glucosidase (G3ase) [3]; reaction time 24 hr): 17.5%
Molecule: OC[C@H]1O[C@@H](O[C@H]2[C@H](O)[C@@H](O)[C@H](O[C@H]3[C@H](O)[C@@H](O)C(O)O[C@@H]3CO)O[C@@H]2CO)[C@H](O)[C@@H](O)[C@@H]1O (some centres unmarked) [G3, cellotriose]

Molecule: OC[C@H]1O[C@@H](O[C@H]2[C@H](O)[C@@H](O)[C@H](O[C@H]3[C@H](O)[C@@H](O)[C@H](O[C@H]4[C@H](O)[C@@H](O)[C@H](O[C@H]5[C@H](O)[C@@H](O)[C@H](O[C@H]6[C@H](O)[C@@H](O)C(O)O[C@@H]6CO)O[C@@H]5CO)O[C@@H]4CO)O[C@@H]3CO)O[C@@H]2CO)[C@H](O)[C@@H](O)[C@@H]1O (some centres unmarked) [G6, cellohexaose]
- percent ratio of produced glucose against total substrate added (β-glucosidase (G3ase) [3]; reaction time 2 hr): 24.3%
- percent ratio of produced glucose against total substrate added (β-glucosidase (G3ase) [3]; reaction time 24 hr): 28.2%

- Ki (β-glucosidase (G3ase) [1]): 760 µM
- Type of inhibition (β-glucosidase (G3ase) [1]): Competitive
- Type of inhibition (β-glucosidase (G3ase) [1]; listed as glucon-o-δ-lactone): competitively inhibited
Molecule: O=C1O[C@H](CO)[C@@H](O)[C@H](O)[C@H]1O [Glucono-δ-lactone]

Molecule: [Cl][Hg][Cl] [HgCl2]
- Relative activity (%) (β-glucosidase (G3ase) [2]; [9]): 85.5%

Molecule: O=C(O)CI [IAA, iodo acetate]
- Relative activity (%) (β-glucosidase (G3ase) [2]; [9]): 126.5%
- Effect on β-glucosidase (G3ase) activity (in words) (β-glucosidase (G3ase) [2]; [10]): did not affect it adversely

Molecule: O=S(=O)([O-])[O-].[Mg+2] [MgSO4]
- Relative activity (%) (β-glucosidase (G3ase) [2]; [9]): 95.2%

Molecule: O=S(=O)([O-])[O-].[Mn+2] [MnSO4]
- Relative activity (%) (β-glucosidase (G3ase) [2]; [9]): 114.5%

- activity at 1000 µM (β-glucosidase (G3ase) [2]; [9]): 0%
- Effect on β-glucosidase (G3ase) activity (in words) (β-glucosidase (G3ase) [2]; [10]): completely inactivated
Molecule: O=C1CCC(=O)N1Br [NBS, N-bromosuccinimide]

Molecule: CCCCCCCCCCCCOS(=O)(=O)[O-].[Na+] [SDS, sodium dodecyl sulfate]
- activity at 1000 µM (β-glucosidase (G3ase) [2]; [9]): 31.3%

Molecule: O=S(=O)([O-])[O-].[Zn+2] [ZnSO4]
- Relative activity (%) (β-glucosidase (G3ase) [2]; [9]): 90.4%

- percent ratio of produced glucose against total substrate added (β-glucosidase (G3ase) [3]; reaction time 2 hr): 0.4%
- percent ratio of produced glucose against total substrate added (β-glucosidase (G3ase) [3]; reaction time 24 hr): 5.2%
- degrading activity of G3ase compared to the other cellooligosaccharides (in words) (β-glucosidase (G3ase) [4]): very low
- ko (molecular activity) (β-glucosidase (G3ase) [4]; substrate of G3ase): 3.8 s⁻¹
Molecule: cellobiose [G2]

B1: β-glucosidase (G3ase) (Komagataeibacter sucrofermentans) (protein)
chain: RHAHDGGGDQADARARQVLASMSLEDKMSLLFSVDGGGFNGSVAPPGGLGSAAYLRAPQGSGLPDLQISDAGLGVRNPAHIRRNGEAVSLPSGQSTASTWDMDMARQAGVMIGREAWQSGFNILLGGGADLTRDPRGGRNFEYAGEDPLQTGRMVGSTIAGVQSQHVISTLKHYAMNDLETSRMTMSADIDPVAMRESDLLGFEIALETGHPGAVMCSYNRVNDLYACENPYLLNKTLKQDWHYPGFVMSDWGATHSSARAALAGLDQESAGDHTDARPYFRTLLAADVKAGRVPEARINDMAERVVRALFAAGLVDHPAQRGPLDVVTDTLVAQKDEEEGAVLLRNQGNILPLSPTARIAVIGGHADAGVISGGGSSQVDPIGGEAVKGPGKKEWPGDPVYFPSSPLKAMQAEAPGARITYDPGTSIASAVRAARAADVVVVYATQFTFEGMDAPSMHLDDNADALITAVAAANPRTVVVMETGDPVLMPWNSSVAGVLEAWFPGSGGGPAIARLLFGKVAPSGHLTMTFPQAESQLAHPDIAGVTADNVFEMQFHTDQELVYDEGSDVGYRWFDRNHFKPLYPFGYGLTYTTFSTDGLKVTERHGQVTATFNVHNTGTRAGVDVPQVYVGLPDGGARRLAGWQRISLAPGESRQVSVQLEPRLLAHFDGKHDRWSVPSGTFRVWLASCATDDSQQTTMHLHGRTMAP
- Km [5]: 1310 µM
- kcat [5]: 31.0 s⁻¹
- Km [6]: 3730 µM
- kcat [6]: 29.8 s⁻¹
- Km [7]: 2100 µM
- kcat [7]: 38.9 s⁻¹
- Km [8]: 1490 µM
- kcat [8]: 32.1 s⁻¹
